Measurements reported in patent US12180192B2, “Modulators of THR-β and methods of use thereof” (ALIGOS THERAPEUTICS, INC., priority 2019, dated 2024).
One block for each compound: values may come before it.

What was measured:
[1] = target: T1, human thyroid receptor alpha ligand-binding domain (LBD) (Homo sapiens, UniProt P10827); assay: TR-FRET thyroid receptor alpha coactivator assay (THR biochemical assay, Assay 1); conditions: for EC50: Table 4, THR-alpha, read-out: Activity category Assay 1 (EC50, THR-alpha agonist activity); for Emax: Table 5, THRα, read-out: Activity category Assay 1 THRα (Emax)
T1 construct: purchased Invitrogen
Procedure, shortened: (§1)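 Agonist-driven coactivator recruitment measured by TR-FRET: terbium anti-GST antibody (2 nM) bound to GST-LBD of TRβ or TRα (1 nM final, stated for β), with fluorescein SRC2-2 peptide at 200 nM. Compounds at 1% DMSO. Read after 1 h, room temperature, protected from light.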

THR beta = target: T2, THR beta (Homo sapiens, UniProt P10828); assay: HEK293T THR beta/RXR luciferase reporter assay (Assay 2); type: cell-based; conditions: for Emax: HEK-293T, Table 5, Assay 2, THRβ, read-out: Activity category Assay 2 THRβ (Emax); for EC50: THR-beta, HEK293T reporter assay, read-out: Activity category Assay 2 (EC50, THR-beta agonist)
T2 construct: expressed in transfected cells; host or cells: HEK293T (ATCC CRL-3216)
T2 sequence (P10828 1-461): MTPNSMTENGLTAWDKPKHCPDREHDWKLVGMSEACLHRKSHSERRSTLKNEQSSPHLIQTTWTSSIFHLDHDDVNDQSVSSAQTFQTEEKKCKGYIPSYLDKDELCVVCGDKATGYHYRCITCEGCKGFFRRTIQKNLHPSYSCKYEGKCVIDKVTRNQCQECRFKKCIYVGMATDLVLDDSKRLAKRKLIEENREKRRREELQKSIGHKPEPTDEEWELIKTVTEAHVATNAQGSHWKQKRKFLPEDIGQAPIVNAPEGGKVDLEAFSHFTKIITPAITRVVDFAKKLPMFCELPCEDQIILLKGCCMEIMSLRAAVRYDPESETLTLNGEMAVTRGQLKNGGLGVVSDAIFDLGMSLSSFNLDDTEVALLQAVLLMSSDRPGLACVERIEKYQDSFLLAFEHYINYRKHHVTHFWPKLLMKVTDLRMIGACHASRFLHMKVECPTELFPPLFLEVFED
T2 sequence (P19793 1-462 partner): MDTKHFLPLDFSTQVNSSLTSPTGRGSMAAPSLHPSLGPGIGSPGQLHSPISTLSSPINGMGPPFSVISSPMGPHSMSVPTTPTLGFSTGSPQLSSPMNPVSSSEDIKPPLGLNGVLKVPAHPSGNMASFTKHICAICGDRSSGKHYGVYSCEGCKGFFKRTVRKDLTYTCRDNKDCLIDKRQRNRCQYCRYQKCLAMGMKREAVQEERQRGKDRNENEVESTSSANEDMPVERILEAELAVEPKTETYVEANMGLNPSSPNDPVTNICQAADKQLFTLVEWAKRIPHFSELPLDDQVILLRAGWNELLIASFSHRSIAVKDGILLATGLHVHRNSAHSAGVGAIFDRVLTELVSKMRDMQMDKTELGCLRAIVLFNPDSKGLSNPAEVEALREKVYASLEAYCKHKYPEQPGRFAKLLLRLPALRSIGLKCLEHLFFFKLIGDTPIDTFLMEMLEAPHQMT
Procedure, shortened: (§2)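 Compounds tested as ten-point five-fold dilution series for 18-24 h on transiently transfected HEK293T cells carrying TRE-driven luciferase plus RXR and either THR alpha or beta expression plasmids. Read-out by One-Glo luminescence, expressed as percent agonism relative to negative and positive controls.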

[2] = target: T3, human thyroid receptor beta ligand-binding domain (LBD) (Homo sapiens, UniProt P10828); assay: TR-FRET thyroid receptor beta coactivator assay (THR biochemical assay, Assay 1); conditions: for EC50: THR-beta, TR-FRET coactivator assay, read-out: Activity category Assay 1 (EC50, THR-beta agonist); for Emax: Table 5, Assay 1, THRβ, read-out: Activity category Assay 1 THRβ (Emax)
T3 construct: purchased Invitrogen
T3 sequence (P10828 217-461 limits assumed): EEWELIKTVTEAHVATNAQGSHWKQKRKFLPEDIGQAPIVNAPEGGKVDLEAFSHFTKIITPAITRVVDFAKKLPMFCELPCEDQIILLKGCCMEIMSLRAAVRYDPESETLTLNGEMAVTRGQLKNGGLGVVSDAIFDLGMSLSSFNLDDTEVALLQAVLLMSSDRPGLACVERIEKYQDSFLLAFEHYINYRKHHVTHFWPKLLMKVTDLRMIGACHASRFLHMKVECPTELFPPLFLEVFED
Procedure, shortened: as §1

THR alpha = target: T4, THR alpha (Homo sapiens, UniProt P10827); assay: HEK293T THR alpha/RXR luciferase reporter assay (Assay 2); type: cell-based; conditions: Assay 2; for Emax: HEK-293T, Table 5, THRα, read-out: Activity category Assay 2 THRα (Emax); for EC50: Table 4, THR-alpha, read-out: Activity category Assay 2 (EC50, THR-alpha agonist activity)
T4 construct: expressed in transfected cells; host or cells: HEK293T (ATCC CRL-3216)
T4 sequence (P10827 1-410 isoform P10827-2): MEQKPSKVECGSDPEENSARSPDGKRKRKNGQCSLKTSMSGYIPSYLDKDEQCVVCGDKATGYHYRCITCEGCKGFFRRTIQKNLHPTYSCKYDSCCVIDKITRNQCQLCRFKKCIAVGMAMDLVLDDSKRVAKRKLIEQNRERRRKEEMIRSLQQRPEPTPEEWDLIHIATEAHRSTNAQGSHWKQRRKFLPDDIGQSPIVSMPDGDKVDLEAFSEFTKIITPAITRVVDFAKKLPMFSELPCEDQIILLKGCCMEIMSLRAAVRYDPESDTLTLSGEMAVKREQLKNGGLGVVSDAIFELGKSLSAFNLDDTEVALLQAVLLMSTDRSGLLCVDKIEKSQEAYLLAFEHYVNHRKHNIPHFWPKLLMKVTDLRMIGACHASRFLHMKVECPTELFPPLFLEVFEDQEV
T4 sequence (P19793 1-462 partner): T2 sequence (P19793 1-462 partner)
Procedure, shortened: as §2

SMILES: O=c1cc(-c2ccc3ccccc3c2)c(Oc2c(Cl)cc(-n3ncc(=O)[nH]c3=O)cc2Cl)n[nH]1 [Compound 92-A]
EC50 [1]: 1000 to 25000 nM
Emax [1]: 50 to 75%
Emax (THR beta): < 50%
EC50 (THR beta): 250 to 1000 nM
EC50 [2]: < 50 nM
Emax [2]: < 50%
Emax (THR alpha): < 50%
EC50 (THR alpha): > 10000 nM

SMILES: Nc1nn(-c2cc(Cl)c(Oc3cc(C4CCc5ccccc5C4)c(=O)[nH]n3)c(Cl)c2)c(=O)[nH]c1=O (stereo not shown) [Compound 98]
EC50 [1]: > 25000 nM
Emax [1]: < 50%
Emax (THR beta): < 50%
EC50 (THR beta): 50 to 250 nM
EC50 [2]: 50 to 250 nM
Emax [2]: < 50%
Emax (THR alpha): < 50%
EC50 (THR alpha): > 10000 nM

SMILES: Cc1cc(-n2nc(N)c(=O)[nH]c2=O)cc(Cl)c1Oc1cc(C(C)C)c(=O)[nH]n1 [Compound 37, 6-Amino-2-[3-chloro-4-[(5-isopropyl-6-oxo-1H-pyridazin-3-yl)oxy]-5-methyl-phenyl]-4H-1,2,4-triazine-3,5-dione]
EC50 [1]: 250 to 1000 nM
Emax [1]: 50 to 75%
Emax (THR beta): > 75%
EC50 (THR beta): 50 to 250 nM
EC50 [2]: 50 to 250 nM
Emax [2]: 50 to 75%
Emax (THR alpha): 50 to 75%
EC50 (THR alpha): 50 to 250 nM

SMILES: Nc1nn(-c2cc(Cl)c(Oc3cc(Cc4ccccc4)c(=O)[nH]n3)c(Cl)c2)c(=O)[nH]c1=O [Compound 65, 6-amino-2-[4-[(5-benzyl-6-hydroxypyridazin-3-yl)oxy]-3,5-dichlorophenyl]-4H-1,2,4-triazine-3,5-dione]
EC50 [1]: 250 to 1000 nM
Emax [1]: < 50%
Emax (THR beta): > 75%
EC50 (THR beta): 50 to 250 nM
EC50 [2]: < 50 nM
Emax [2]: < 50%
Emax (THR alpha): < 50%
EC50 (THR alpha): 1000 to 10000 nM

SMILES: CCc1cccc(-c2cc(Oc3c(Cl)cc(-n4nc(N)c(=O)[nH]c4=O)cc3Cl)n[nH]c2=O)c1 [Compound 71, 6-Amino-2-(3,5-dichloro-4-((5-(3-ethylphenyl)-6-oxo-1,6-dihydro-pyridazin-3-yl)oxy)phenyl)-1,2,4-triazine-3,5(2H,4H)-dione]
EC50 [1]: 50 to 250 nM
Emax [1]: < 50%
Emax (THR beta): > 75%
EC50 (THR beta): < 50 nM
EC50 [2]: < 50 nM
Emax [2]: < 50%
Emax (THR alpha): 50 to 75%
EC50 (THR alpha): 50 to 250 nM

Other lines, results leading:

EC50 [1]: > 25000 nM
Emax [1]: < 50%
Emax (THR beta): > 75%
EC50 (THR beta): 250 to 1000 nM
EC50 [2]: < 50 nM
Emax [2]: < 50%
Emax (THR alpha): 50 to 75%
EC50 (THR alpha): 1000 to 10000 nM
SMILES: N#Cc1nn(-c2cc(Cl)c(Oc3ccc4[nH]cc(C5CCCC5)c4c3)c(Cl)c2)c(=O)[nH]c1=O [Compound 5, 2-[3,5-dichloro-4-[(3-cyclopentyl-1H-indol-5-yl)oxy]phenyl]-3,5-dioxo-4H-1,2,4-tri-azine-6-carbonitrile]

EC50 [1]: 250 to 1000 nM
Emax [1]: < 50%
Emax (THR beta): > 75%
EC50 (THR beta): 250 to 1000 nM
EC50 [2]: < 50 nM
Emax [2]: 50 to 75%
Emax (THR alpha): > 75%
EC50 (THR alpha): 1000 to 10000 nM
SMILES: CC(C)c1c[nH]c2nnc(Oc3c(Cl)cc(-n4nc(N)c(=O)[nH]c4=O)cc3Cl)cc12 [Compound 53, 6-amino-2-[3,5-dichloro-4-([5-isopropyl-7H-pyrrolo[2,3-c]pyridazin-3-yl]oxy)phenyl]-4H-1,2,4-triazine-3,5-dione]

EC50 [1]: < 50 nM
Emax [1]: 50 to 75%
Emax (THR beta): > 75%
EC50 (THR beta): 50 to 250 nM
EC50 [2]: < 50 nM
Emax [2]: < 50%
Emax (THR alpha): > 75%
EC50 (THR alpha): 50 to 250 nM
SMILES: CC(C)C1(C)C(=O)Nc2ccc(Oc3c(Cl)cc(-n4nc(N)c(=O)[nH]c4=O)cc3Cl)cc21 (stereo not shown) [Compound 84, 6-amino-2-[3,5-dichloro-4-[(3-isopropyl-3-methyl-2-oxo-1H-indol-5-yl)oxy]phenyl]-4H-1,2,4-triazine-3,5-dione]

EC50 [1]: > 25000 nM
Emax [1]: < 50%
EC50 (THR beta): > 10000 nM
EC50 [2]: 50 to 250 nM
Emax [2]: < 50%
Emax (THR alpha): < 50%
SMILES: Cc1cc2cc(Oc3c(Cl)cc(-n4nc(C#N)c(=O)[nH]c4=O)cc3Cl)ccc2[nH]c1=O [Compound 154, 2-[3,5-dichloro-4-[(3-methyl-2-oxo-1H-quinolin-6-yl)oxy]phenyl]-3,5-dioxo-1,2,4-triazine-6-carbonitrile]
